In US20060210658A1, “Processes for obtaining (-)-guaiol and the use thereof” (priority 2000, published 2006):

What was measured:
Experiment in all cases: Antimicrobial action test (MIC)
Type in all cases: cell-based
Porphyromonas gingivalis = tested on: Porphyromonas gingivalis
Source text: (§1) Examples (Table 1): (MIC—minimum inhibitory concentration)

Staphylococcus aureus = tested on: Staphylococcus aureus
Source text: as §1
(§2) Examples: (MIC=minimum inhibitory concentration)

[1] = tested on: Trichophyton mentagrophytes
Source text: as §1, §2

Staphylococcus sobrinus = tested on: Staphylococcus sobrinus
Source text: as §1, §2

[2] = tested on: Trichophyton schoenleinii
Source text: as §1, §2

Microsporum canis = tested on: Microsporum canis
Source text: as §1, §2

Epidermophyton floccosum = tested on: Epidermophyton floccosum
Source text: as §1, §2

Staphylococcus mutans = tested on: Staphylococcus mutans
Source text: as §1, §2

Selenomonas artemidis = tested on: Selenomonas artemidis
Source text: as §1, §2

Microsporum gypseum = tested on: Microsporum gypseum
Source text: as §1, §2

Malassezia furfur = tested on: Malassezia furfur
Source text: as §1, §2

Trichophyton rubrum = tested on: Trichophyton rubrum
Source text: as §1, §2

Measured: MIC (minimum inhibitory concentration)

cyclodextrin [pure cyclodextrin]
>10000 ppm: Porphyromonas gingivalis | Staphylococcus aureus | [1] | Staphylococcus sobrinus | [2] | Microsporum canis | Epidermophyton floccosum | Staphylococcus mutans | Selenomonas artemidis | Microsporum gypseum | Malassezia furfur | Trichophyton rubrum
